Reference: US8993523B2, “Dimeric IAP inhibitors” (Novartis AG, priority 2010, dated 2015)

What was measured:
Panc3.27 tumor cells = assay: Cellular assay: Panc3.27 tumor cell proliferation (Cell Titer Glo); assay type: cell-based; conditions: Panc3.27 cells, 72 hour treatment, read-out: PANC proliferation IC50
Method: Cellular Assay—Treatment of Panc3.27 Tumor Cells with Dimeric IAP Antagonists
On day one adherent Panc3.27 cells are plated into two 96-well, clear, flat bottom plates. All wells in row A contain 90 uL of media. All wells in rows B-G contain a total volume of 90 uL per well and 4000 cells per well for Panc3.27 cell lines. Plates are then incubated overnight for 18 hours at 37° C., 5% CO2.
On day two cells are treated with the compounds of formula M-L-M′. Treatments are done in triplicate. The compounds are first serially diluted in DMSO and then added to media giving a final concentration of 0.2% DMSO when added to cells. Cells are treated with 10 uL of serially diluted compounds of formula M-L-M′ at a final concentration of 1000 nM, 200 nM, 40 nM, 8 nM, 1.6 nM, 0.32 nM, 0.06 nM, 0.013 nM, 0.0026 nM, and one untreated well. Plate two is used as a time zero plate.
To measure cell viability 50 uL of Cell Titer Glo (CTG) solution is added to row A, media only and B, cells and media. CTG is purchased from Promega Corporation catalog number G7573. The solution is prepared according to manufacturer's instructions. CTG measures the amount of ATP released from viable cells that is proportional to the number of cells in each well. After incubating for ten minutes with CTG plates are measured on a luminescent reader at 700 nm wavelength. Read time is approximately one second per well for a 96-well plate.
On day five 50 uL of CTG is added to plate one, rows A-G, incubated for 10 minutes at room temperature and read on a luminescent reader. Raw data is adjusted to account for the time zero plate as well as background noise. Triplicate values are averaged and percent control growth is calculated. Percent control growth is calculated using the following logical test: If well read data point (a) is greater than time zero data point (t=0), then 100*[(a)−(t=0)]/[(72 hour total growth)−(t=0)], OR 100*[(a)−(t=0)]/[(t=0)]. Data is represented by line graph with the concentration of compound on the x axis and percent control growth on the y axis.

XIAP-BIR3 = biological target: T1, XIAP-BIR3 (Homo sapiens, UniProt P98170); assay: Biacore SPR solution inhibition (competition with smac7mer peptide) binding assay, XIAP-BIR3; conditions: 100 nM XIAP-BIR3, competition with immobilised smac7mer peptide, 25° C.; read-out: XIAP-BIR3 Binding Biacore (Competitive) EC50
T1 construct: with either 100 nM XIAP-BIR3 or 6 nM cIAP1-BIR3
T1 sequence (P98170 241-356 limits assumed): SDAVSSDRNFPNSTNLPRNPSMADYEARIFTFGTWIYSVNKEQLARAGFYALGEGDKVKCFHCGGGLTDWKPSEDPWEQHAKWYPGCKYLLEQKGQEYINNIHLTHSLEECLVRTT
Source text: (§1) The present method includes utility of a Surface plasmon resonance (SPR)-based biosensor (Biacore™ GE Healthcare, Uppsala, Sweden) to examine competition between the compounds of the present invention and smac7mer peptide for XIAP-BIR3 and cIAP1-BIR3 binding groove occupancy.
(§2) Biacore™ utilizes the phenomenon of surface plasmon resonance (SPR) to detect and measure binding interactions. In a typical Biacore experiment, one of the interacting molecules is immobilized on a flexible dextran matrix while the interacting partner is flowed over the derivatized surface. A binding interaction results in an increase in mass on the sensor surface and a corresponding direct change in the refractive index of the medium in the vicinity of the sensor surface. Changes in refractive index or signal are recorded in resonance units (R.U.) Signal changes due to association and dissociation of complexes are monitored in a non-invasive manner, continuously and in real-time, the results of which are reported in the form of a sensorgram.
(§3) Solution Inhibition Assay Format:
(§4) Biacore™ T100 (GE Healthcare, Uppsala, Sweden) was used to conduct all experiments reported herein. Sensor surface preparation and interaction analyses were performed at 25° C. Buffer and Biacore reagents were purchased from GE Healthcare. Running buffer containing 10 mM Hepes, pH7.4, 150 mM sodium chloride, 1.25 mM Dithiothreitol, 2% Dimethyl sulfoxide and 0.05% polysorbate 20 was utilized throughout all experiments.
(§5) Biotinylated smac7mer peptide was diluted to 10 nM in running buffer and captured onto a sensor surface pre-derivatized with streptavidin (sensor chip SA) towards peptide surface densities in the range 40-100 R.U. Peptide captured surfaces were blocked with 500 μM PEO2-Biotin (Thermo Scientific).
(§6) Interaction analyses were performed by first equilibrating each compound within a six point seven fold compound dilution series in the range 1 μM to 0.06 nM with either 100 nM XIAP-BIR3 or 6 nM cIAP1-BIR3 for at least one hour during instrument start-up procedures. Protein compound mixtures were then injected over reference and smac7mer peptide surfaces in series for 60 seconds at a flow-rate of 60 μL/min. Surface regeneration was performed at the end of each analysis cycle by a 30 second injection of 10 mM Glycine, pH 2.5, 1M Sodium Chloride, 0.05% polysorbate 20. Additionally, control compound samples and control XIAP-BIR3 or cIAP1-BIR3 samples were prepared and run at regular intervals to monitor surface and assay performance.
(§7) Data analyses were carried out using Biacore™ T100 evaluation software v2.0 to validate assay quality. Binding level report points were plotted versus logarithmic compound concentration values and analyzed in Graphpad prism 5 via non-linear regression using a one-site competition model. EC50 values were generated and used as a measure of inhibitor potency.

cIAP1-BIR3 = biological target: T2, cIAP1-BIR3 (Homo sapiens, UniProt Q13490); assay: Biacore SPR solution inhibition (competition with smac7mer peptide) binding assay, cIAP1-BIR3; conditions: 6 nM cIAP1-BIR3, competition with immobilised smac7mer peptide, 25° C.; read-out: CIAP-BIR3 Binding Biacore (Competitive) EC50
T2 construct: with either 100 nM XIAP-BIR3 or 6 nM cIAP1-BIR3
T2 sequence (Q13490 260-352 limits assumed): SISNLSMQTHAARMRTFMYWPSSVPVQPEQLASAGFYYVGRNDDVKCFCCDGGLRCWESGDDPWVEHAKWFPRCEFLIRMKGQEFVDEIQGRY
Source text: as §1, §2, §3, §4, §5, §6, §7

xenograft tumors = assay: In vivo combination study in xenograft tumor mice; conditions: 1× per week, mice with xenograft tumors, 2-3 weeks
Method: In vivo combination studies were performed as follows. Cohorts of mice (n=8) were treated with (1) Cohort A: Example 1A (1.8 mg/kg, 1× per week), (2) Cohort B: Paclitaxel (12 mg/kg, 1× per week), or (3) Cohort C: a combination of Example 1A (1.8 mg/kg, 1× per week)+Paclitaxel (12 mg/kg, 1× per week). Studies typically initiated dosing when xenograft tumors were 200 mm^3 and lasted 2-3 weeks. Positive combination activity occurs when neither single agent treatment alone results in tumor regression (i.e. increase in tumor volume is not inhibited in treated animals) but the combination results in tumor regression (i.e. tumor volume decreases in treated animals).

IC50 (Panc3.27 tumor cells) [nM] | EC50 (XIAP-BIR3) [nM] | EC50 (cIAP1-BIR3) [nM] | Compound | tumor response, single agent (xenograft tumors; Cohort A: 1.8 mg/kg) | tumor growth control (xenograft tumors; Cohort B: 12 mg/kg) [%]
0.0026 to 0.83 | 34.5 to 56.9 | 0.24 to 0.57 | CN[C@@H](C)C(=O)N[C@H](C(=O)N1CCC[C@H]1c1cncc(-n2ccc3c(C(=O)NCCCOCCOCCCNC(=O)c4cccc5c4ccn5-c4cncc([C@@H]5CCCN5C(=O)[C@@H](NC(=O)[C@H](C)NC)C(C)C)c4)cccc32)c1)C(C)C [Example 1A, (S,S,S)—N,N′-(3,3′-(Ethane-1,2-diylbis(oxy))bis(propane-3,1-diyl))bis(1-(5-((S)-1-((S)-3-methyl-2-((S)-2-(methylamino)-propanamido)butanoyl)pyrrolidin-2-yl)pyridin-3-yl)-1H-indole-4-carboxamide)] | tumor stasis was achieved | 
 |  |  | CC(=O)O[C@H]1C(=O)[C@@]2(C)[C@H]([C@H](OC(=O)c3ccccc3)[C@]3(O)C[C@H](OC(=O)[C@H](O)[C@@H](NC(=O)c4ccccc4)c4ccccc4)C(C)=C1C3(C)C)[C@]1(OC(C)=O)CO[C@@H]1C[C@@H]2O [Paclitaxel, reference compound] |  | > 50
0.26 to 0.44 | 47 to 54 | 0.52 to 1.83 | CN[C@@H](C)C(=O)N[C@H](C(=O)N1CCC[C@H]1c1cncc(-n2cc(C(=O)NCCCOCCOCCCNC(=O)c3cn(-c4cncc([C@@H]5CCCN5C(=O)[C@@H](NC(=O)[C@H](C)NC)C(C)C)c4)c4ccccc34)c3ccccc32)c1)C(C)C [Example 2E, (S,S,S)—N,N′-(3,3′-(ethane-1,2-diylbis(oxy))bis(propane-3,1-diyl))bis(1-(5-((S)-1-((S)-3-methyl-2-((S)-2-(methylamino)propanamido)butanoyl)pyrrolidin-2-yl)pyridin-3-yl)-1H-indole-3-carboxamide)] |  | 
